Tests used:
[1] = Long term/accelerated stability; assay type: physicochemical
Method: The crystal form A (Example 5) was placed at 25° C., 60% RH and 40° C., 75% RH to investigate its stability

[2] = Investigation of influencing factors (stability under heating, illumination, high humidity); assay type: physicochemical
Method: The sample of the crystal form A (Example 5) was spread out, and its stability was investigated under the conditions of heating (40° C., 60° C.), illumination (4500 Lux) and high humidity (RH 75%, RH 90%). The sampling was investigated over 30 days.

[3] = DVS (dynamic vapor sorption) hygroscopicity test; assay type: physicochemical
Method: According to the definition of hygroscopicity characteristics and hygroscopic weight gain in “9103 guiding principles for hygroscopicity of drugs” in the fourth volume of Chinese Pharmacopoeia (2015 Edition),
DVS indicates dynamic vapor sorption: the determination is carried out by SMS DVS Advantage at 25° C. with a humidity change of 50%-95%-0%-95%-50%, and the step of 10% (the last step is 5%) (The specific range of humidity is subject to the corresponding spectrum, and the methods listed here are those used in most cases), and the judgment standard is that dm/dt is not more than 0.02%.

[4] = tested on: HepG2 cells; details: read-out: CC50 (proliferation inhibition), 72 hours, CellTiter-Glo
Method: HepG2 cells taken in logarithmic growth stage were prepared into the cell suspension through digestion with trypsin, and then the suspension was cultured with 6,000 cells/well in 96-well plate (96-well White/Clear Flat Bottom plate) under 5% carbon dioxide at 37° C. for 16-20 hours. On the second day, the compound was dissolved in pure DMSO with the concentration of 20 mM, and then the gradient dilution of the compound was carried out by using Automatic pipetting workstation (Bravo) with the dilution times of 3, where there were 8 concentration points for each compound, and the control well was DMSO; next, the compound with each concentration treated by DMSO was diluted 200 times using EMEM (containing 10% FBS) medium. The cell culture plate inoculated on the first day was taken out, and then the medium in the well plate was sucked out by using the negative pressure suction device. Into each well, the prepared medium containing each concentration of compound was added respectively, which was cultured with 100 μl/well at 37° C. for 72 hours. On the fifth day, the 96-well cell plate was taken out, and the freshly prepared CellTiter Glo was added into each well with 100 μL/well, left to stand for 5-10 minutes, sealed for the bottom of the 96-well plate with a white back cover film (PerkinElmer), placed into the Microplate Reader, and measured for the Luminescence signal by the reader.

[5] = target: HBV capsid protein (Hepatitis B virus genotype D subtype ayw, UniProt P03146); details: from PCT/CN2018/097170; cited from earlier work
Sequence of HBV capsid protein (P03146 whole entry): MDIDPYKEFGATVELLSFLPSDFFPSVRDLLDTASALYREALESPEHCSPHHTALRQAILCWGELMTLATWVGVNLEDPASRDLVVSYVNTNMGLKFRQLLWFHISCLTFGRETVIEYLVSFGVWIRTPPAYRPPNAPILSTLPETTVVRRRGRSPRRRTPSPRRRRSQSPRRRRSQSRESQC

[6] = tested on: HepG2 cells; details: from PCT/CN2018/097170; cited from earlier work
[7] = tested on: HBV DNA replication in HepG2.2.15 cells; assay: In vitro anti-HBV activity test (quantitative analysis of intracellular HBV DNA); assay type: cell-based; details: HBV DNA by quantitative PCR
From the text: Test Example 1: In Vitro Anti-HBV Activity Test (Quantitative Analysis of Intracellular HBV DNA)
HepG2.2.15 cells were stable expression cell lines integrated with HBV genome, which can be secreted out of cells through replication, transcription, translation and packaging into virus particles with HBV DNA. In this study, the quantitative PCR method was used to quantitatively analyze the HBV DNA produced by the proliferation of HepG2.2.15 in vitro, thus determining the activity of the compounds in the present disclosure to inhibit HBV DNA replication through inhibiting the assembly of HBV capsid protein.
HepG2.2.15 cells were cultured in DMEM/high glucose medium (10% FBS, 400 μg/ml G418) and passaged every 3 days. On the day of experiment, fresh cell culture medium was used to prepare cell suspension, which was cultured with 40,000 cells/well in 96 well plate (Corning, #3599) under 5% carbon dioxide at 37° C. […] The extracted DNA was analyzed by HBV DNA quantitative PCR using Hepatitis B virus nucleic acid quantitative detection kit from Tepp biology, with the method specifically mentioned in the instructions of the kit. The quantitative standard curve was determined in parallel experiment using the own standard sample of the kit. Each sample was converted quantitatively based on the standard curve. […]

[8] = from PCT/CN2018/097170; cited from earlier work

Compound: C[C@H]1Cn2nnc(C(=O)N[C@H](C)C(F)(F)F)c2CN1C(=O)Nc1ccc(F)c(F)c1 [Crystal form A, (S)-N^5-(3,4-difluorophenyl)-6-methyl-N^3-((R)-1,1,1-trifluoropropan-2-yl)-6,7-dihydro-[1,2,3]triazolo[1,5-a]pyrazine-3,5(4H)-dicarbonamide]
- Purity % ([1]; 25° C., 60% RH, 1 month): 98.3%
- Purity % ([1]; 25° C., 60% RH, 2 months): 98.3%
- Purity % ([1]; 25° C., 60% RH, 3 months): 98.3%
- Purity % ([1]; 25° C., 60% RH, 6 months): 98.3%
- Purity % ([1]; 25° C., 60% RH, start): 98.3%
- Purity % ([1]; 40° C., 75% RH, 1 month): 98.3%
- Purity % ([1]; 40° C., 75% RH, 2 months): 98.3%
- Purity % ([1]; 40° C., 75% RH, 3 months): 98.3%
- Purity % ([1]; 40° C., 75% RH, 6 months): 98.2%
- Purity % ([1]; 40° C., 75% RH, start): 98.3%
- physical and chemical stability ([1]; stored for 6 months, long-term (25° C., 60% RH) and acceleration (40° C., 75% RH)): excellent physical and chemical stability
- Color and character ([2]; 4500 Lux, day 5): white solid
- Purity % ([2]; 4500 Lux, day 5): 98.27%
- Color and character ([2]; 4500 Lux, day 10): white solid
- Purity % ([2]; 4500 Lux, day 10): 98.27%
- Color and character ([2]; 4500 Lux, day 30): white solid
- Crystal form ([2]; 4500 Lux, day 30): No changed
- Purity % ([2]; 4500 Lux, day 30): 98.30%
- Color and character ([2]; RH 75%, day 5): white solid
- Purity % ([2]; RH 75%, day 5): 98.26%
- Weight gain % ([2]; RH 75%, day 5): 2.28%
- Color and character ([2]; RH 75%, day 10): white solid
- Purity % ([2]; RH 75%, day 10): 98.29%
- Weight gain % ([2]; RH 75%, day 10): 2.72%
- Color and character ([2]; RH 75%, day 30): white solid
- Crystal form ([2]; RH 75%, day 30): No changed
- Purity % ([2]; RH 75%, day 30): 98.29%
- Weight gain % ([2]; RH 75%, day 30): 6.68%
- Color and character ([2]; RH 90%, day 5): white solid
- Purity % ([2]; RH 90%, day 5): 98.26%
- Weight gain % ([2]; RH 90%, day 5): 2.93%
- Color and character ([2]; RH 90%, day 10): white solid
- Purity % ([2]; RH 90%, day 10): 98.28%
- Weight gain % ([2]; RH 90%, day 10): 3.19%
- Color and character ([2]; RH 90%, day 30): white solid
- Crystal form ([2]; RH 90%, day 30): No changed
- Purity % ([2]; RH 90%, day 30): 98.30%
- Weight gain % ([2]; RH 90%, day 30): 10.70%
- Color and character ([2]; heating 40° C., day 5): white solid
- Purity % ([2]; heating 40° C., day 5): 98.28%
- Color and character ([2]; heating 40° C., day 10): white solid
- Purity % ([2]; heating 40° C., day 10): 98.31%
- Color and character ([2]; heating 40° C., day 30): white solid
- Crystal form ([2]; heating 40° C., day 30): No changed
- Purity % ([2]; heating 40° C., day 30): 98.32%
- Color and character ([2]; heating 60° C., day 5): white solid
- Purity % ([2]; heating 60° C., day 5): 98.26%
- Color and character ([2]; heating 60° C., day 10): white solid
- Purity % ([2]; heating 60° C., day 10): 98.27%
- Color and character ([2]; heating 60° C., day 30): white solid
- Crystal form ([2]; heating 60° C., day 30): No changed
- Purity % ([2]; heating 60° C., day 30): 98.30%
- physical and chemical stability ([2]; illumination, 40° C., 60° C., high humidity 75% and 90%, storing for 30 days): good physical and chemical stability
- Color and character ([2]; start, day 0): white solid
- Purity % ([2]; start, day 0): 98.30%
- hygroscopicity class ([3]; 70% RH): no or little hygroscopicity
- hygroscopicity class ([3]; 90% RH): slight hygroscopicity, or no/little hygroscopicity
- crystal form after DVS detection (XRPD) ([3]; before vs after DVS): remained unchanged
- desorption process ([3]; humidity change from 0% to 95% RH): consistent with the adsorption process
- hygroscopic weight gain ([3]; normal storage condition, 25° C. and 60% RH): about 0.07%

Compound: C[C@H]1Cn2nnc(C(=O)N[C@H](C)C(F)(F)F)c2CN1C(=O)Nc1ccc(F)c(F)c1 [Compound B, (S)-N^5-(3,4-difluorophenyl)-6-methyl-N^3-((R)-1,1,1-trifluoropropan-2-yl)-6,7-dihydro-[1,2,3]triazolo[1,5-a]pyrazine-3,5(4H)-dicarbonamide]
- CC50 [4]: > 100000 nM
- inhibitory effect on the normal assembly of HBV capsid protein [5]: obvious inhibitory effect
- effect on the proliferation inhibition of HepG2 cells in vitro [6]: no or little effect
- Emax (maximum inhibitory effect on HBV DNA replication) [7]: 100%
- EC50 ([7]; read-out: EC50 (inhibition of HBV DNA replication)): 19 nM
- bioavailability [8]: high
- pharmacokinetic absorption [8]: good

Reference: patent US20220081446A1, “CRYSTAL FORM OF 1,2,3-TRIAZOLO[1,5-A]PYRAZINES DERIVATIVE AND PREPARATION METHOD FOR CRYSTAL FORM” (Jiangsu Hengrui Medicine Co., Ltd., priority 2019, published 2022)
